Results as given in ChEMBL document CHEMBL4627246, “Pyroglutamide-Based P2X7 Receptor Antagonists Targeting Inflammatory Bowel Disease” (J Med Chem, 2020).

What was measured:
Assay type in all cases: cell-based
HCC 2998 = assay: Cytotoxicity against human HCC2998 cells assessed as effect on cell growth at 10 uM incubated for 48 hrs by sulforhodamine B assay; details: hcc 2998, 48 h
K562 = assay: Cytotoxicity against human K562 cells assessed as effect on cell growth at 10 uM incubated for 48 hrs by sulforhodamine B assay; details: k562, 48 h
LOX IMVI = assay: Cytotoxicity against human LOXIMVI cells assessed as effect on cell growth at 10 uM incubated for 48 hrs by sulforhodamine B assay
CCRF-CEM = assay: Cytotoxicity against human CCRF-CEM cells assessed as effect on cell growth at 10 uM incubated for 48 hrs by sulforhodamine B assay
TK-10 = assay: Cytotoxicity against human TK10 cells assessed as effect on cell growth at 10 uM incubated for 48 hrs by sulforhodamine B assay; details: tk-10, 48 h
MOLT-4 = assay: Cytotoxicity against human MOLT4 cells assessed as effect on cell growth at 10 uM incubated for 48 hrs by sulforhodamine B assay; details: molt-4, 48 h
SR = assay: Cytotoxicity against human SR cells assessed as effect on cell growth at 10 uM incubated for 48 hrs by sulforhodamine B assay
OVCAR-3 = assay: Cytotoxicity against human OVCAR3 cells assessed as effect on cell growth at 10 uM incubated for 48 hrs by sulforhodamine B assay; details: ovcar-3, 48 h
RXF 393 = assay: Cytotoxicity against human RXF393 cells assessed as effect on cell growth at 10 uM incubated for 48 hrs by sulforhodamine B assay; details: rxf 393, 48 h
ACHN = assay: Cytotoxicity against human ACHN cells assessed as effect on cell growth at 10 uM incubated for 48 hrs by sulforhodamine B assay
SK-OV-3 = assay: Cytotoxicity against human SKOV3 cells assessed as effect on cell growth at 10 uM incubated for 48 hrs by sulforhodamine B assay; details: sk-ov-3, 48 h
KM12 = assay: Cytotoxicity against human KM12 cells assessed as effect on cell growth at 10 uM incubated for 48 hrs by sulforhodamine B assay; details: km12, 48 h
UACC-62 = assay: Cytotoxicity against human UACC62 cells assessed as effect on cell growth at 10 uM incubated for 48 hrs by sulforhodamine B assay; details: uacc-62, 48 h
HCT-116 = assay: Cytotoxicity against human HCT116 cells assessed as effect on cell growth at 10 uM incubated for 48 hrs by sulforhodamine B assay; details: hct-116, 48 h
MCF7 = assay: Cytotoxicity against human MCF7 cells assessed as effect on cell growth at 10 uM incubated for 48 hrs by sulforhodamine B assay; details: mcf7, 48 h
NCI-H322M = assay: Cytotoxicity against human NCI-H322M cells assessed as effect on cell growth at 10 uM incubated for 48 hrs by sulforhodamine B assay
DU-145 = assay: Cytotoxicity against human DU145 cells assessed as effect on cell growth at 10 uM incubated for 48 hrs by sulforhodamine B assay; details: du-145, 48 h
SNB-19 = assay: Cytotoxicity against human SNB19 cells assessed as effect on cell growth at 10 uM incubated for 48 hrs by sulforhodamine B assay; details: snb-19, 48 h
MDA-MB-468 = assay: Cytotoxicity against human MDA-MB-468 cells assessed as effect on cell growth at 10 uM incubated for 48 hrs by sulforhodamine B assay; details: mda-mb-468, 48 h
MDA-MB-435 = assay: Cytotoxicity against human MDA-MB-435 cells assessed as effect on cell growth at 10 uM incubated for 48 hrs by sulforhodamine B assay; details: mda-mb-435, 48 h

Measured: Activity

O=C(NCc1ccc(Cl)cc1Cl)[C@@H]1CCC(=O)N1C(c1ccc(Cl)cc1)c1ccc(Cl)cc1
Non-Toxic: all assays above

O=C(NCc1ccc(Cl)cc1Cl)[C@@H]1CCC(=O)N1c1cscn1
Non-Toxic: all assays above

O=C(NCc1ccc(Cl)cc1Cl)[C@@H]1CCC(=O)N1Cc1ccccc1
Non-Toxic: all assays above

CN(C)C(=O)[C@@H]1CCC(=O)N1
Non-Toxic: all assays above

COc1ccc(N2C(=O)CC[C@H]2C(=O)NCc2ccc(Cl)cc2Cl)cc1
Non-Toxic: all assays above

O=C(NCc1ccccc1Cl)[C@@H]1CCC(=O)N1c1ccccc1
Non-Toxic: all assays above

O=C1CCCC(C(=O)NCc2ccc(Cl)cc2Cl)N1 (stereo not given)
Non-Toxic: all assays above

O=C(NCc1ccc(Cl)cc1Cl)[C@@H]1CCC(=O)N1c1ccc(Cl)cc1
Non-Toxic: all assays above

COc1ccc(CN2C(=O)CC[C@H]2C(=O)NCCc2ccccc2)cc1
Non-Toxic: all assays above

O=C(NCc1ccc(Cl)cc1Cl)[C@@H]1CCC(=O)N1c1ccsc1
Non-Toxic: all assays above

O=C(Nc1ccc(Cl)cc1Cl)[C@@H]1CCC(=O)N1Cc1ccccc1Cl
Non-Toxic: all assays above

O=C1N[C@H](C(=O)NCc2ccc(Cl)cc2Cl)C/C1=C\N1CCOCC1
Non-Toxic: all assays above

C[n+]1ccccc1C(=O)NCc1ccc(Cl)cc1Cl.[I-]
Non-Toxic: all assays above

COC(=O)[C@@H]1C/C(=C\NCc2ccc(Cl)cc2Cl)C(=O)N1C(=O)OC
Non-Toxic: all assays above
